Source: patent US7507727B2, “Substituted quinobenzoxazine analogs and methods of using thereof” (Cylene Pharmaceuticals, Inc., priority 2003, dated 2009)
Read-outs that look alike come from different tables or passages of the source.

Tests used:
HeLa cells = test: MTS cell proliferation and/or cytotoxicity assay; assay type: cell-based, Human; settings: concentration at which 50% of antiproliferative cell response is seen, 3 days incubation, read-out: MTS Data Hella
Experimental: Cell culture. Human cervical epithelial cells (HeLa cells) were obtained from American Type Culture Collection (Manassas, Va.). Cells were grown in Eagle's minimum essential medium (MEM, Hyclone, Utah) supplemented with 2 mM Glutamine, 0.1 mM nonessential amino acid, 1 mM Na Pyruvate, 1.5 g/L NaHCO3, 50 mg/L gentamicin, and 10% fetal bovine serum (Hyclone, USA) in a humidified atmosphere of 5% CO2 at 37° C.
MTS assays. Antiproliferative effects of the compounds were tested by the CellTiter 96 AQueous assay (Promega, WI), which is a calorimetric assay for determining the number of viable cells. (See, e.g., Wang, L., et al., Methods Cell Sci (1996) 18:249-255). In one example, cells (4,500 cells/well) were seeded on 96 well flat bottom plates (Corning, N.Y.) in 100 μl of culture medium without any anticancer drug on day 0, and the culture medium was exchanged for that //contained anticancer drugs at various concentrations on day 1. After incubation for 3 days under normal growth conditions (on day 4), the monolayers were washed once in PBS, and the medium was switched to 100 μl of PBS in each of the 96 well plate. After mixing MTS and PMS at the ratio of 20:1, 20 μl of MTS/PMS solution was added to each of the 96 well plate and incubated for 4 hours in a humidified atmosphere of 5% CO2 at 37° C. The absorbance was read at 490 nm using FLUOstar Galaxy 96 well plate reader (BMG Labtechnologies, Germany). μM concentrations (MTS data) reported in Table 1 are concentrations at which 50% of antiproliferative cell response is seen.

[1] = molecular target: c-Myc template DNA (c-myc quadruplex); test: Quadruplex binding / stop assay (Taq polymerase arrest, capillary electrophoresis); settings: read-out: Stop Data c-Myc μM; concentration at which 50% of the DNA was arrested (arrested:full-length 1:1)
Excerpt: A high throughput polymerase arrest assay has been developed. The assay comprises contacting a template nucleic acid, often DNA, with a primer, which also is often DNA; contacting the primer/template complex with a compound described herein (also referred to as a “test compound”); contacting the primer/template complex with a polymerase; and separating reaction products. The assay often includes the step of denaturing the primer/template complex mixture and then renaturing the complex, which often is carried out before a test molecule is added to the system. Multiple assays often are carried out using varying concentrations of a test compound, such that an IC50 value can be obtained, for example. The reaction products often include extended primers of different lengths.
Thus, the reaction mixture often includes at least two reaction products when a test compound interacts with a quadruplex structure in the template, one having a completely extended primer and one having an incompletely extended primer, and these two reaction products are separated. The products may be separated using any convenient separation method, such as mass spectrometry and in one embodiment, capillary electrophoresis.
In an embodiment, a primer oligonucleotide covalently linked to a fluorescent label is contacted with template DNA. The resulting complex is contacted with a test molecule and then contacted with a polymerase capable of extending the primer. The reaction products then are separated and detected by capillary electrophoresis. A longer primer sequence was used for practicing this embodiment as compared to embodiments where the primer includes no covalently-linked fluorophore or where capillary electrophoresis is not utilized for separation. Deoxynucleotides are added at any stage of the assay before the separation, often when the primer is contacted with the template DNA. The template DNA/primer complex often is denatured (e.g., by increasing the temperature of the system) and then renatured (e.g., by cooling the system) before a test compound is added).
The mixture was denatured at 95° C. for 5 minutes and, after cooling down to room temperature, was incubated at 37° C. for 15 minutes.
After cooling down to room temperature, 1 mM KCl and the test compound (various concentrations) were added and the mixture incubated for 15 minutes at room temperature. The primer extension was performed by adding 10 mM KCl and Taq DNA Polymerase (2.5 U/reaction, Promega) and incubating at 70° C. for 30 minutes. The reaction was stopped by adding 1 μl of the reaction mixture to 10 μl Hi-Di Formamide mixed and 0.25 μl LIZ120 size standard. Hi-Di Formamide and LIZ120 size standard were purchased from Applied Biosystems.
The partially extended quadruplex arrest product was between 61 or 62 bases long and the full-length extended product was 99 bases long. The products were separated and analyzed using capillary electrophoresis. Capillary electrophoresis was performed using an ABI PRISM 3100-Avant Genetic Analyzer.
Stop Assays. […] A fluorescently labeled primer DNA is then annealed to the 3′ end of the template DNA. A DNA polymerase such as Taq polymerase is then introduced to synthesize a complementary strand of DNA by extending from the fluorescently labeled primer. When the progress of the Taq polymerase is unhindered, it synthesizes a full-length copy of the template.
These products are visualized by capillary electrophoresis.

| SMILES | IC50 (HeLa cells; Homo sapiens, HeLa, 72 h) | IC50 [1] | IC50 (HeLa cells) |
| --- | --- | --- | --- |
| O=C(CN1CCCC1)N[C@@H]1CCN(c2c(F)cc3c(=O)c(C(=O)NCCN4CCCC4)cn4c3c2Oc2cc3c(cc2-4)oc2ccccc23)C1 [compound 506] | 3400 nM | 0.375 µM |  |
| CN(C)CCCCNC(=O)c1cn2c3c(c(N4CC[C@@H](NC(=O)CCN5CCCCC5)C4)c(F)cc3c1=O)Oc1cc3c(cc1-2)oc1ccccc13 [compound 507] | 3300 nM | 0.375 µM |  |
| CN1CCN(CCCNC(=O)c2cn3c4c(c(N5CC[C@@H](NC(=O)CCN6CCCCC6)C5)c(F)cc4c2=O)Oc2cc4c(cc2-3)oc2ccccc24)CC1 [compound 508] | 3200 nM | 0.375 µM |  |
| CN(C)CCCCNc1c(F)cc2c(=O)c(C(=O)NCCCn3ccnc3)cn3c2c1Oc1cc2c(cc1-3)oc1ccccc12 [compound 509] | 3100 nM | 0.375 µM |  |
| CN(C)CCCCNC(=O)c1cn2c3c(c(N4CC[C@@H](NC(=O)CCN5CCCC5)C4)c(F)cc3c1=O)Oc1cc3c(cc1-2)oc1ccccc13 [compound 510] | 3100 nM | 0.375 µM |  |
| N[C@H]1CCN(c2c(F)cc3c(=O)c(C(=O)NCCCN4CCOCC4)cn4c5cc6c(cc5oc2c34)c(=O)c2ccccc26)C1 [compound 511] | 3100 nM | 0.375 µM |  |
| NC(N)=NCCCNC(=O)c1cn2c3c(c(N4CC[C@@H](N)C4)c(F)cc3c1=O)Oc1cc3ccccc3cc1-2 [compound 512] | 3100 nM | 0.375 µM |  |
| CN1CCCC1CCNC(=O)c1cn2c3c(c(NCC4CC(C)(C)N(O)C4(C)C)c(F)cc3c1=O)Oc1cc3ccccc3cc1-2 (stereo not shown) [compound 513] | 3100 nM | 0.375 µM |  |
| CN1CCCC1CCNC(=O)c1cn2c3cc4c(cc3oc3c(NCCC5CCCN5C)c(F)cc(c1=O)c32)c(=O)c1ccccc14 (stereo not shown) [compound 514] | 2900 nM | 0.375 µM |  |
| CN(C)CCCCNc1c(F)cc2c(=O)c(C(=O)NCCN3CCCC3)cn3c4cc5c(cc4oc1c23)c(=O)c1ccccc15 [compound 515] | 2500 nM | 0.375 µM |  |
| CN1CCCC1CCNC(=O)c1cn2c3c(c(N4CCC(c5cnccn5)C4)c(F)cc3c1=O)Oc1cc3ccccc3cc1-2 (stereo not shown) [compound 516] | 2300 nM | 0.375 µM |  |
| CN1CCCC1CCNc1c(F)cc2c(=O)c(C(=O)NCCN3CCOCC3)cn3c4cc5c(cc4oc1c23)c(=O)c1ccccc15 (stereo not shown) [compound 517] | 2200 nM | 0.375 µM |  |
| CN(C)CCCCNc1c(F)cc2c(=O)c(C(=O)NCCN3CCOCC3)cn3c4cc5c(cc4oc1c23)c(=O)c1ccccc15 [compound 518] | 2200 nM | 0.375 µM |  |
| CN(C)CCCCNC(=O)c1cn2c3cc4c(cc3oc3c(NCCCN5CCOCC5)c(F)cc(c1=O)c32)c(=O)c1ccccc14 [compound 519] | 2100 nM | 0.375 µM |  |
| CN1CCN(CCCNC(=O)c2cn3c4cc5c(cc4oc4c(N6CC[C@H](N)C6)c(F)cc(c2=O)c43)c(=O)c2ccccc25)CC1 [compound 520] | 1900 nM | 0.375 µM |  |
| NC1CCN(c2c(F)cc3c(=O)c(C(=O)NCCCn4ccnc4)cn4c3c2Oc2cc3c(cc2-4)oc2ccccc23)C1 (stereo not shown) [compound 521] | 1700 nM | 0.375 µM |  |
| CN(C)CCCCNc1c(F)cc2c(=O)c(C(=O)NCCCN3CCOCC3)cn3c4cc5c(cc4oc1c23)c(=O)c1ccccc15 [compound 522] | 1700 nM | 0.375 µM |  |
| CN1CCCC1CCNc1c(F)cc2c(=O)c(C(=O)NCCCN3CCOCC3)cn3c4cc5c(cc4oc1c23)c(=O)c1ccccc15 (stereo not shown) [compound 523] | 1600 nM | 0.375 µM |  |
| CN1CCN(CCCNC(=O)c2cn3c4cc5c(cc4oc4c(NCCN6CCCC6)c(F)cc(c2=O)c43)c(=O)c2ccccc25)CC1 [compound 524] | 1500 nM | 0.375 µM |  |
| CN1CCCC1CCNC(=O)c1cn2c3c(c(N4CC[C@H](N)C4)c(N)cc3c1=O)Oc1cc3ccccc3cc1-2 (stereo partly shown) [compound 526] | 900 nM | 0.375 µM |  |
| CN1CCCC1CCNc1c(F)cc2c(=O)c(C(=O)NCCN3CCCC3)cn3c4cc5c(cc4oc1c23)c(=O)c1ccccc15 (stereo not shown) [compound 527] | 790 nM | 0.375 µM |  |
| NCCCCNC(=O)c1cn2c3c(c(N4CC[C@@H](N)C4)c(F)cc3c1=O)Oc1cc3ccccc3cc1-2 [compound 528] | 750 nM | 0.375 µM |  |
| CN1CCCC1CCNC(=O)c1cn2c3c(c(N4CCC(N)C4)ccc3c1=O)Oc1cc3ccccc3cc1-2 (stereo not shown) [compound 529] | 750 nM | 0.375 µM |  |
| NC1CCN(c2c(F)cc3c(=O)c(C(=O)NCCN4CCOCC4)cn4c3c2Oc2cc3c(cc2-4)oc2ccccc23)C1 (stereo not shown) [compound 530] | 720 nM | 0.375 µM |  |

| SMILES | IC50 (HeLa cells; Homo sapiens, HeLa, 72 h) | IC50 [1] | IC50 (HeLa cells) |
| --- | --- | --- | --- |
| CN(C)CC(C)(C)CNC(=O)c1cn2c3c(c(N4CCC(N)C4)c(F)cc3c1=O)Oc1cc3ccccc3cc1-2 (stereo not shown) [compound 531] | 480 nM | 0.375 µM |  |
| CN(C)CCCCNC(=O)c1cn2c3c(c(N4CCC(N)C4)c(F)cc3c1=O)Oc1cc3c(cc1-2)Cc1ccccc1-3 (stereo not shown) [compound 532] | 440 nM | 0.375 µM |  |
| CN1CCN(CCC(=O)N[C@@H]2CCN(c3c(F)cc4c(=O)c(C(=O)NCCN5CCCC5)cn5c4c3Oc3cc4c(cc3-5)oc3ccccc34)C2)CC1 [compound 533] | 400 nM | 0.375 µM |  |
| CN1CCCC1CCNC(=O)c1cn2c3c(c(NCCCN(CCO)CCO)c(F)cc3c1=O)Oc1cc3ccccc3cc1-2 (stereo not shown) [compound 534] | 400 nM | 0.375 µM |  |
| CN1CCCC1CCNC(=O)c1cn2c3c(c(N4CCC(CCCC5CCNCC5)CC4)c(F)cc3c1=O)Oc1cc3ccccc3cc1-2 (stereo not shown) [compound 535] | 310 nM | 0.375 µM |  |
| CN1CCCC1CCNC(=O)c1cn2c3c(c(N[C@H]4CN5CCC4CC5)c(F)cc3c1=O)Oc1cc3ccccc3cc1-2 (stereo partly shown) [compound 536] | 310 nM | 0.375 µM |  |
| CN1CCCC1CCNC(=O)c1cn2c3c(c(N4CCC(N)C4)c(F)cc3c1=O)Oc1cc3c(cc1-2)Cc1ccccc1-3 (stereo not shown) [compound 537] | 290 nM | 0.375 µM |  |
| CN1CCN(CCCNC(=O)c2cn3c4c(c(N5CC[C@@H](N)C5)c(F)cc4c2=O)Oc2cc4ccccc4cc2-3)CC1 [compound 538] | 280 nM | 0.375 µM |  |
| CC1(C)CC(NC(=O)c2cn3c4c(c(N5CCC(N)C5)c(F)cc4c2=O)Oc2cc4ccccc4cc2-3)CC(C)(C)N1 (stereo not shown) [compound 539] | 280 nM | 0.375 µM |  |
| CN1CCCC1CCNC(=O)c1cn2c3c(c(N4CCC(N)C4)c(F)cc3c1=O)Oc1cc3ccccc3cc1-2 (stereo not shown) [compound 540] |  | 0.375 µM | 270 nM |
| CC(C)NCCCNC(=O)c1cn2c3c(c(N4CCC(N)C4)c(F)cc3c1=O)Oc1cc3ccccc3cc1-2 (stereo not shown) [compound 541] | 270 nM | 0.375 µM |  |
| CCN(CC)CCCC(C)NC(=O)c1cn2c3c(c(N4CCC(N)C4)c(F)cc3c1=O)Oc1cc3ccccc3cc1-2 (stereo not shown) [compound 542] | 230 nM | 0.375 µM |  |
| CCN(C)CCCC(C)NC(=O)c1cn2c3c(c(NCCN4CCCC4)ccc3c1=O)Oc1cc3ccccc3cc1-2 (stereo not shown) [compound 543] | 200 nM | 0.375 µM |  |
| O=C(NCCN1CCCC1)c1cn2c3c(c(N4CC5CCCNC5C4)ccc3c1=O)Oc1cc3ccccc3cc1-2 (stereo not shown) [compound 544] | 200 nM | 0.375 µM |  |
| O=C(NCCN1CCCC1)c1cn2c3c(c(N4CC5CCCNC5C4)c(F)cc3c1=O)Oc1cc3ccccc3cc1-2 (stereo not shown) [compound 545] | 150 nM | 0.375 µM |  |
| CN1CCCC1CCNC(=O)c1cn2c3c(c(N4CC5CCCNC5C4)c(F)cc3c1=O)Oc1cc3ccccc3cc1-2 (stereo not shown) [compound 546] | 100 nM | 0.375 µM |  |
| O=C(NCCCN1CCOCC1)c1cn2c3c(c(N4CC5CCCNC5C4)c(F)cc3c1=O)Oc1cc3ccccc3cc1-2 (stereo not shown) [compound 547] | 100 nM | 0.375 µM |  |
| CN(C)CCCCNC(=O)c1cn2c3c(c(N4CC5CCCNC5C4)c(F)cc3c1=O)Oc1cc3ccccc3cc1-2 (stereo not shown) [compound 548] | 100 nM | 0.375 µM |  |
| O=C(NCCC1CCCN1)c1cn2c3c(c(NCCCN4CCOCC4)c(F)cc3c1=O)Oc1cc3c(cc1-2)oc1ccccc13 (stereo not shown) [compound 562] | 850 nM | 0.32 µM |  |
| N[C@@H]1CCN(c2c(F)cc3c(=O)c(C(=O)NCCC4CCCN4)cn4c3c2Oc2cc3c(cc2-4)oc2ccccc23)C1 (stereo partly shown) [compound 563] | 310 nM | 0.25 µM |  |
| CN1CCCC1CCNC(=O)c1cn2c3c(c(N4CC[C@@H](N)C4)c(F)cc3c1=O)Oc1cc3ccccc3cc1-2 (stereo partly shown) [compound 564] | 290 nM | 0.25 µM |  |
| N[C@@H]1CCN(c2c(F)cc3c(=O)c(C(=O)NCCN4CCCC4)cn4c3c2Oc2cc3ccccc3cc2-4)C1 [compound 565] | 200 nM | 0.25 µM |  |
| O=C(NCCN1CCOCC1)c1cn2c3c(c(N4CC5CCCNC5C4)c(F)cc3c1=O)Oc1cc3ccccc3cc1-2 (stereo not shown) [compound 566] | 30 nM | 0.25 µM |  |
